Reference: US20240216444A1, “DESIGNED BACTERIAL COMPOSITIONS” (Seres Therapeutics, Inc., priority 2015, published 2024)

Legend:
[1] = tested on: HSDH activity (7-, 3- or 12-hydroxyl groups) on cholic, chenodeoxycholic, deoxycholic and lithocholic acid; experiment: LC-MS screen for hydroxysteroid dehydrogenase (HSDH) activity; format: biochemical; settings: LC-MS
[2] = tested on: bile salt hydrolase (BSH) activity on conjugated bile acids (gCA, tCA, gCDCA, tCDCA); experiment: Bile salt hydrolase (BSH) activity screen using TLC; format: biochemical
[3] = tested on: bile salt hydrolase (BSH) activity on conjugated bile acids; experiment: LC-MS screen for bile salt hydrolase (BSH) activity
Protocol: To conduct the assay, briefly, bacteria were grown on permissive agar media plates for 24 to 48 hours to generate sufficient biomass to carry out assays. The bacterial lawns were resuspended in PBS to create a homogenous suspension that was then used for the BSH assay. To assay for BSH activity, bacterial suspensions were incubated with two separate mixtures of four distinct conjugated bile acids, each at concentration of 150 μg/ml, for 4 hours at 37° C. under anaerobic conditions. The reaction mixture was then extracted with an equal volume of acetonitrile, spun down to pellet bacteria and the supernatant filtered through a 0.2 μM filter to generate a sample for LC-MS analysis. Bile acids were determined using an Agilent 1260 HPLC coupled to a Bruker Compact qTOF MS. Samples were run on a bidentate C18 column using an acetonitrile:water buffer system to separate bile acids which were then ionized in negative mode and identified using a qTOF-MS. BSH activity was determined by the formation of deconjugated bile acid products that were verified by comparison to known standards and quantified, if necessary, using standard curves.

[4] = SCFA profile of bacterial culture supernatants by GC-MS; settings: GC-MS of culture supernatants
Excerpt: The same bacterial culture supernatants used for HDAC inhibition assays described supra were submitted to GC-MS analysis to determine which SCFAs underlie the observed inhibition of HDAC. The method employed (MSOmics, Denmark) measures formate, acetate, propionate, butyrate, isobutyrate (2-methyl-propionate), isovalerate (3-methyl-butyrate), valerate (pentanoate), 4-methyl-pentanoate, caproate (hexanoate), and heptanoate. […] Numbers in Table 11 indicate detected SCFA concentration. B=butyrate; P=propionate; IB=isobutyrate, and IV=isovalerate.

[5] = tested on: C. difficile carbon sources; experiment: Carbon source utilization, 87 carbon sources in three base media, OD600 and acid production (Example 3B); format: cell-based; parameters: key: “+” and “w” refer to “positive” and “weak” utilization of the carbon source, respectively; “+” and “w” refer to “positive” and “weak” utilization of the carbon source, respectively
Excerpt: Three C. difficile strains and 12 non-C. difficile bacterial strains were profiled using a panel of carbon sources. As used herein, unless otherwise indicated, carbon sources includes all sources tested as growth substrates in the experiments herein. The three C. difficile strains were Clostridium difficile ATCC 9689, Clostridium difficile ATCC 43593, and Clostridium difficile ATCC 43255, all of which are available from the American Type Culture Collection (ATCC).
Growth of the strains was tested on 87 different carbon sources in a 96-well plate format. The panel contained 34 carbon sources reported to be utilized by C. difficile in the literature (Hafiz and Oakley. 1976 J Med Microbiol 9:129-36; Wilson and Perini. 1988 Infection and Immunity 56:2610-14; Bergey and Holt. Bergey's Manual of Determinative Bacteriology. Baltimore: Williams & Wilkins, 1994; Sebaihia et al. 2006 Nature Genetics 38:779-786) including amino acids, mono-, di-, tri- and polysaccharides, glucoside and sugar alcohols. Carbon sources were added at 0.5% into three different base media (Base medium 1 SSNC composition: beef extract 1 g/L, yeast extract 2 g/L, bacto soytone 6 g/L, NaCl 4 g/L, KH2PO4 5.44 g/L, MgSO4 2 mM, CaCl2 1 mM, MnCl2 0.1 mM, cysteine hydrochloride 0.25 g/L, hemin 10 mg/L, menadione 1 mg/L, MOPS 6.3 g/L, pH 7; Base medium 2 SPOSCR composition: beef extract 1 g/L, yeast extract 2 g/L, bacto soytone 6 g/L, NaCl 4 g/L, KH2PO4 5.44 g/L, MgSO4 2 mM, CaCl2) 1 mM, MnCl2 0.1 mM, cysteine hydrochloride 0.25 g/L, hemin 10 mg/L, menadione 1 mg/L, MOPS 8.4 g/L, NaHCO3 0.4%, pH 7; Base medium 3 YCFA: casitone 10 g/L, yeast extract 2.5 g/L, cysteine hydrochloride 1 g/L, hemin 10 mg/L, ATCC vitamin solution 10 mL/L, ATCC trace element solution 10 mL/L, K2HPO4 0.45 g/L, KH2PO4 0.45 g/L, (NH4)2SO4 0.9 g/L, MgSO4×7H2O 90 mg/L, CaCl2) 90 mg/L, acetic acid 33 mM, propionic acid 9 mM, isobutyric acid 1 mM, isovaleric acid 1 mM, valeric acid 1 mM, pH 7).
Positive growth was scored by measuring optical density at 600 nm and comparing it to growth in base medium without an added carbon source. For two, base media acid production was also scored by measuring optical density at 558 nm of pH-indicator phenol red mixed with spent medium from each culture.

[6] = tested on: 7α-dehydroxylation of cholic acid and chenodeoxycholic acid; experiment: LC-MS screen for 7α-dehydroxylation (7α-OH) activity; format: biochemical; settings: LC-MS
[7] = tested on: HDAC enzymes (HeLa nuclear extract); experiment: HDAC inhibition activity in supernatants of cultures grown in different carbon sources; settings: 25% HDAC inhibition as cut off
Protocol: To determine whether the HDAC inhibition was affected by the type and level of carbon source available to a bacterial species, HDAC inhibition by supernatants derived from a selection of bacterial species used in DBCs was determined. In these experiments, bacteria were grown in a variety of carbon sources including mono-, di-, polysaccharides, and porcine mucine. Briefly, 600 μL bacterial cultures in peptone/yeast extract medium (PY) supplemented with 0.5% of the selected carbon sources were inoculated in 96 deep well plates, grown for 4 days, then the microbial cells were pelleted by centrifugation, and 15 μL of the culture medium (supernatant) was used for the HDAC assay with HeLa nuclear extract as described above. Because HDAC activity is reduced at low pH (Latham et al. 2012 Nucl Acid Res 40:4794-803) and the microbial cultures had pH as low as 5, to ensure that the final pH of the assay was not reduced by the addition of supernatant, 10 μL of a 1M Tris pH 8 solution was added per well to bring the final Tris buffer concentration to 75 mM. Thus, assays were performed with 15 μL supernatant, 10 μL 1M Tris pH 8, 25 μL of assay buffer and 50 μL of diluted HeLa nuclear extract, which were preincubated for 30 minutes prior to the addition of developing reagent. Luminescence was measured after 30 minutes.

With Clostridium glycolicum the “HSDH 3a” value [1] was “+ (‘+’ indicates greater than 50-fold increase in levels of product bile acid, suggesting strong activity)”, the “HSDH 7a” value [1] was “+ (‘+’ indicates greater than 50-fold increase in levels of product bile acid, suggesting strong activity)” and the “HSDH 12a” value [1] was “−”. For the same substance, the “BSH activity on gCDCA by TLC” value [2] was “no BSH activity”, the “BSH gCA” value ([3]; substrate gCA) was “+ (‘+’ indicates greater than 50-fold increase in levels of product bile acid, suggesting strong activity)” and the “BSH gCDCA” value ([3]; substrate gCDCA) was “+ (‘+’ indicates greater than 50-fold increase in levels of product bile acid, suggesting strong activity)”. The “BSH t-aMCA” value ([3]; substrate t-aMCA) was “+ (‘+’ indicates greater than 50-fold increase in levels of product bile acid, suggesting strong activity)”, the “BSH t-bMCA” value ([3]; substrate t-bMCA) was “+ (‘+’ indicates greater than 50-fold increase in levels of product bile acid, suggesting strong activity)” and the “BSH tCA” value ([3]; substrate tCA) was “+ (‘+’ indicates greater than 50-fold increase in levels of product bile acid, suggesting strong activity)”. For the same substance, the “BSH tCDCA” value ([3]; substrate tCDCA) was “+ (‘+’ indicates greater than 50-fold increase in levels of product bile acid, suggesting strong activity)”, the SCFAs produced [4] was “produced isovalerate, isobutyrate and propionate” and the “utilization of carbon source Citrus pectin” value ([5]; Citrus pectin) was “+”. The “utilization of carbon source NAG” value ([5]; NAG (N-acetylglucosamine)) was “+”, the “utilization of carbon source alanine” value ([5]; alanine) was “w” and the “utilization of carbon source arginie” value ([5]; arginie) was “w”. For the same substance, the “utilization of carbon source aspartic acid” value ([5]; aspartic acid) was “+”, the “utilization of carbon source formate” value ([5]; formate) was “+” and the “utilization of carbon source fructose” value ([5]; fructose) was “+”. The “utilization of carbon source glucose” value ([5]; glucose) was “+”, the “utilization of carbon source glycogen” value ([5]; glycogen) was “w” and the “utilization of carbon source guar” value ([5]; guar) was “w”. The “utilization of carbon source isoleucine” value ([5]; isoleucine) was “+”, the “utilization of carbon source leucine” value ([5]; leucine) was “+” and the “utilization of carbon source ornithine” value ([5]; ornithine) was “w”. For the same substance, the “utilization of carbon source polygalacturonate” value ([5]; polygalacturonate) was “+”, the “utilization of carbon source propanediol” value ([5]; propanediol) was “w” and the “utilization of carbon source ribose” value ([5]; ribose) was “+”. For the same substance, the “utilization of carbon source serine” value ([5]; serine) was “+”, the “utilization of carbon source sialic acid” value ([5]; sialic acid) was “w” and the “utilization of carbon source threonine” value ([5]; threonine) was “+”. For the same substance, the “utilization of carbon source tryptophan” value ([5]; tryptophan) was “+”, the “utilization of carbon source valine” value ([5]; valine) was “+” and the “utilization of carbon source α-ketoglutarate” value ([5]; α-ketoglutarate) was “+”. For the same substance, the “7a Dehydrox CA” value ([6]; substrate CA) was “−”, the “7a Dehydrox CDCA” value ([6]; substrate CDCA) was “−” and the “HDAC inhibition when alternative nutrient sources are tested” value [7] was “positive”. For the same substance, the indole test (12 strains, eight carbon sources) was “positive” and the “colour of culture in indole test” value (F. plautii: each of the 8 carbon sources, C. glycolicum: all C-sources except glucose, pectin, FOS/inulin) was “turned red”.
